According to ChEMBL document CHEMBL1201862, “PubChem BioAssay data set” (2004):
The source made the active and inactive calls.

Columns and labels:
[1] = Luminescent dose response cell-based high throughput screening assay for inhibitors of the Janus kinase 2 mutant JAK2V617F. [Related pubchem assays: 1446 (Primary screen.), 1521 (Confirmation assay.), 1486 (Counter screen.)]; assay type: functional
[2] = NIH-3T3 fibroblast cytotoxicity, dose response, cytotoxicity control, cell-based, fluorescence, Alamar Blue, secondary assay (AID 2327); assay type: functional;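 note: NIH-3T3 mouse fibroblasts cultured with fluconazole at 8 µg/mL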
[3] = C. albicans growth with fluconazole, confirmation, fluorescence, retest (AID 2467); assay type: functional, cell-based
[4] = target: G-protein coupled receptor 55 (Homo sapiens, UniProt Q9Y2T6); assay: GPR55 antagonists blocking LPI-driven arrestin recruitment, primary screen, imaging, U2OS, beta-arrestin-GFP, LPI agonist (AID 2013); assay type: functional;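 note: antagonist potency measured as reduced agonist-driven arrestin aggregation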
Sequence of G-protein coupled receptor 55 (Q9Y2T6 whole entry): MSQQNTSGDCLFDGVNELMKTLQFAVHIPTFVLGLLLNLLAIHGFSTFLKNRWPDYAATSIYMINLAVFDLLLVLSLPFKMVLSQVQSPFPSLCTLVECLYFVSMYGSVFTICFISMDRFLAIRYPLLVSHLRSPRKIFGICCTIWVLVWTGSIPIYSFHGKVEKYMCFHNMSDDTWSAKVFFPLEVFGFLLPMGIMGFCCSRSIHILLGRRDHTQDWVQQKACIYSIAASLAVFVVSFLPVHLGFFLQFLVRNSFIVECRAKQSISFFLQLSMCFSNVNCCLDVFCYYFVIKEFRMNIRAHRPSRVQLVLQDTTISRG

[5] = inhibitors of intracellular T. cruzi replication, confirmation, NIH3T3 host cells, beta-gal luminescence (AID 2044); assay type: functional, cell-based;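 note: intracellular parasites grown in NIH/3T3 mouse fibroblasts as host cells; luminescent beta-galactosidase reporter signal from transgenic T. cruzi replicating inside host cells; inhibitors lower the luminescence signal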
[6] = cytotoxicity toward NIH3T3 fibroblasts, dose response, counter-screen, cell-based, ATP luminescence, mouse fibroblasts (AID 2010); assay type: functional;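 note: cells exposed to compound for about 90 hours before reading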
[7] = target: Bifunctional protein GlmU (Mycobacterium tuberculosis, UniProt P9WMN3); assay: Inhibitors of Mycobacterial Glucosamine-1-phosphate acetyl transferase (GlmU). Secondary screen.; parameters: species or system Mycobacterium tuberculosis H37Rv
Sequence of Bifunctional protein GlmU (P9WMN3 whole entry, the tested form may be a part): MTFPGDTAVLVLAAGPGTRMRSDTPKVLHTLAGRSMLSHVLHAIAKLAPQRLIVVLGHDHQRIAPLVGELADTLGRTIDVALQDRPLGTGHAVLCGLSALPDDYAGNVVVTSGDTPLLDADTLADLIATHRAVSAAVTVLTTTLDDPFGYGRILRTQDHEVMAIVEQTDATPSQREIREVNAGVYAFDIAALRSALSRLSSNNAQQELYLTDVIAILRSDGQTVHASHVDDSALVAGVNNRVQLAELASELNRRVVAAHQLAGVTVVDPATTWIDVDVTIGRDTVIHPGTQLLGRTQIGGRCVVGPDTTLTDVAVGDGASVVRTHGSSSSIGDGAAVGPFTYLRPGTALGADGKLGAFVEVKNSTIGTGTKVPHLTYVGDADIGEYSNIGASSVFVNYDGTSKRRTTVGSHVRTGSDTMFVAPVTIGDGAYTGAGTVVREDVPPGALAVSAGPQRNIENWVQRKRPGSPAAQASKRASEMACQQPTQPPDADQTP

CHO = assay: cytotoxicity in TLR9-MyD88 CHO cells, dose response, cytotoxicity control for TLR9-MyD88 binding inhibitor project, cell-based, luminescence (AID 588339); assay type: functional, hamster; details: Cricetulus griseus;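 note: CHO cells stably coexpressing TLR9 and MyD88 fusions from primary screen; compound exposure lasted 48 hours before viability readout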
[8] = target: T1, Replicative DNA helicase DnaB (Mycobacterium tuberculosis, UniProt P9WMR3); assay: DnaB intein splicing inhibitors, dose response, biochemical, cell-free fluorescence (AID 449749); assay type: functional
T1 sequence (P9WMR3 whole entry): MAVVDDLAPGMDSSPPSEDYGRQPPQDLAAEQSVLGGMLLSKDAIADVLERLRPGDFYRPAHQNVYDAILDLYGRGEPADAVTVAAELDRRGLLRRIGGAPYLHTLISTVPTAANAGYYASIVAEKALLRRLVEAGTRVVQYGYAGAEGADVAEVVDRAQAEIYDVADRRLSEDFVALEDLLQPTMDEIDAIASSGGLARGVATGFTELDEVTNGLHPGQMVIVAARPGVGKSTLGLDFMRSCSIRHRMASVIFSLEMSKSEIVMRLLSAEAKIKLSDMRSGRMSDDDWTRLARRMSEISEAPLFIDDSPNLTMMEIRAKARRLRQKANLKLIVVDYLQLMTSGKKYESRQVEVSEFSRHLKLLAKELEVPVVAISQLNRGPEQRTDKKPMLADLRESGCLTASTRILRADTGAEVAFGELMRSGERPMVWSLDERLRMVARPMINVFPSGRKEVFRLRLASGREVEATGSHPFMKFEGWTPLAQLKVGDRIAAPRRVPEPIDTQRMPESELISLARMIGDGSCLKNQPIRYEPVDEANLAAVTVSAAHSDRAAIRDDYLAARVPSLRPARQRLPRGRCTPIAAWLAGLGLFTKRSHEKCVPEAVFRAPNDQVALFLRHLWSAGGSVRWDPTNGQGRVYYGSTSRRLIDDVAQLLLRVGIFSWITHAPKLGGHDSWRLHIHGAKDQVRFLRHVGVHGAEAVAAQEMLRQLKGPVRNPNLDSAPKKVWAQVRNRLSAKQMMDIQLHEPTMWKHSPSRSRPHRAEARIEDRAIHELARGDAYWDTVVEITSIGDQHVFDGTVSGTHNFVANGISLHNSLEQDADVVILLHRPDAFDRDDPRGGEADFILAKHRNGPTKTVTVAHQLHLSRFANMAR

Protein RecA = target: T2, Protein RecA (Mycobacterium tuberculosis, UniProt P9WHJ3); assay: Fluorescence Cell-Free Homogeneous Dose Retest to Identify Inhibitors of RecA-Intein Splicing Activity. [Related pubchem assays (depositor defined):AID2097, AID2223, AID489010, AID492950]; assay type: functional
T2 sequence (P9WHJ3 whole entry): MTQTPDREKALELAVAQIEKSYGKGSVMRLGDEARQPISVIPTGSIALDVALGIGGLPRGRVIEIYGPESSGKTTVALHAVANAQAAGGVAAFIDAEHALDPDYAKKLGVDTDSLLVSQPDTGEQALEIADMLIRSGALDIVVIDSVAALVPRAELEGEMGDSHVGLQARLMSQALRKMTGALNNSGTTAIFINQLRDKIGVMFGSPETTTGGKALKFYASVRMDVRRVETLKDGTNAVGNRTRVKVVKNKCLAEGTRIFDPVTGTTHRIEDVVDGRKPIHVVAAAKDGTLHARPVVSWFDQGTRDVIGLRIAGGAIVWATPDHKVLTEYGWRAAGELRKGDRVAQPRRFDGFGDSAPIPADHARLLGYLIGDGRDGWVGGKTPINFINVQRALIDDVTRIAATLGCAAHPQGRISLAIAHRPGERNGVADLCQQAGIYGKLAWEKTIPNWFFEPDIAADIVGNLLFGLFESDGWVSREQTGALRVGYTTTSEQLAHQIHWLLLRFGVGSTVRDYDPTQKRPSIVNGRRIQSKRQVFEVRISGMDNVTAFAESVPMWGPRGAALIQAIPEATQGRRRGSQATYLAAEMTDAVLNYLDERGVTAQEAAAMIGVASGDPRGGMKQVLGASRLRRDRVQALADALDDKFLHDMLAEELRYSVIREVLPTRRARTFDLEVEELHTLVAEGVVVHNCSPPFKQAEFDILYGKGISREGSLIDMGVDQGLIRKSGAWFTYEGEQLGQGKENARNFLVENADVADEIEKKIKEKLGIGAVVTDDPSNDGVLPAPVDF

Beta Lactamase = Beta Lactamase (Pseudomonas aeruginosa, UniProt Q932Y6); assay: beta-lactamase reporter inhibitor potency, dose response, artefact control for TLR9-MyD88 binding inhibitor project, BLA reporter cells, FRET fluorescence (AID 588341); assay type: cell-based;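 note: cell based assay in CHO-K1 cells stably expressing beta-lactamase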
Sequence of Beta Lactamase (Q932Y6 whole entry): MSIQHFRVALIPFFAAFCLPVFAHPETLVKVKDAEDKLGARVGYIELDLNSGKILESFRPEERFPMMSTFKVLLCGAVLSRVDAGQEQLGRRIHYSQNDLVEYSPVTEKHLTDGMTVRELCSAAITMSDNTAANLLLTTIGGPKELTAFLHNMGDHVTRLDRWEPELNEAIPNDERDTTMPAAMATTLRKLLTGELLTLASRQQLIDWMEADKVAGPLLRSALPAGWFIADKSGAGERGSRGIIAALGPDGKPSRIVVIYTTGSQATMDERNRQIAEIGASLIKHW

[9] = Shn3 3'UTR reporter inhibitors, dose response, cell-based, Clone20 osteoblasts, firefly luciferase, cherry-picked (AID 624132); assay type: functional;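 note: firefly luciferase luminescence from reporter carrying the Shn3 3'UTR in osteoblasts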
[10] = control 3'UTR Renilla luciferase suppression, dose response, counter-screen for Shn3 inhibitor project, cell-based, Clone20-Shn3RL, cherry-picked (AID 624133); assay type: functional
[11] = A549 cell cytotoxicity, dose response, cytotoxicity control, plate reader, cherry-pick, antagonist series (AID 743412); assay type: functional, cell-based
[12] = HepG2 cell cytotoxicity, dose response, cytotoxicity control, plate reader, cherry-pick, antagonist series (AID 743416); assay type: functional, cell-based
[13] = LGR2 antagonists, dose response, cell-based, HEK293, CRE-luciferase reporter, cherry pick, set 2 (AID 743343); assay type: functional;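 note: transfected cells were stimulated with diluted bursicon conditioned medium after compound addition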
[14] = MC4R antagonists, dose response, counter-screen for LGR2 antagonist project, cell-based, plate reader, cherry pick (AID 743444); assay type: functional;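 note: transfected HEK 293 cells stimulated with alpha-MSH peptide; potency of inhibitors of the alpha-MSH evoked signal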
[15] = HEK293 cell cytotoxicity, dose response, cytotoxicity control, plate reader, cherry-picked samples (AID 743446); assay type: functional, cell-based
Aminopeptidase N = target: T3, Aminopeptidase N (Plasmodium falciparum FcB1/Columbia, UniProt O96935); assay: P. falciparum M1AAP inhibitors, biochemical, fluorogenic H-Leu-NHMec substrate, 1536-well (AID 1445); parameters: species or system Plasmodium falciparum 3D7, 3D7
T3 sequence (O96935 whole entry): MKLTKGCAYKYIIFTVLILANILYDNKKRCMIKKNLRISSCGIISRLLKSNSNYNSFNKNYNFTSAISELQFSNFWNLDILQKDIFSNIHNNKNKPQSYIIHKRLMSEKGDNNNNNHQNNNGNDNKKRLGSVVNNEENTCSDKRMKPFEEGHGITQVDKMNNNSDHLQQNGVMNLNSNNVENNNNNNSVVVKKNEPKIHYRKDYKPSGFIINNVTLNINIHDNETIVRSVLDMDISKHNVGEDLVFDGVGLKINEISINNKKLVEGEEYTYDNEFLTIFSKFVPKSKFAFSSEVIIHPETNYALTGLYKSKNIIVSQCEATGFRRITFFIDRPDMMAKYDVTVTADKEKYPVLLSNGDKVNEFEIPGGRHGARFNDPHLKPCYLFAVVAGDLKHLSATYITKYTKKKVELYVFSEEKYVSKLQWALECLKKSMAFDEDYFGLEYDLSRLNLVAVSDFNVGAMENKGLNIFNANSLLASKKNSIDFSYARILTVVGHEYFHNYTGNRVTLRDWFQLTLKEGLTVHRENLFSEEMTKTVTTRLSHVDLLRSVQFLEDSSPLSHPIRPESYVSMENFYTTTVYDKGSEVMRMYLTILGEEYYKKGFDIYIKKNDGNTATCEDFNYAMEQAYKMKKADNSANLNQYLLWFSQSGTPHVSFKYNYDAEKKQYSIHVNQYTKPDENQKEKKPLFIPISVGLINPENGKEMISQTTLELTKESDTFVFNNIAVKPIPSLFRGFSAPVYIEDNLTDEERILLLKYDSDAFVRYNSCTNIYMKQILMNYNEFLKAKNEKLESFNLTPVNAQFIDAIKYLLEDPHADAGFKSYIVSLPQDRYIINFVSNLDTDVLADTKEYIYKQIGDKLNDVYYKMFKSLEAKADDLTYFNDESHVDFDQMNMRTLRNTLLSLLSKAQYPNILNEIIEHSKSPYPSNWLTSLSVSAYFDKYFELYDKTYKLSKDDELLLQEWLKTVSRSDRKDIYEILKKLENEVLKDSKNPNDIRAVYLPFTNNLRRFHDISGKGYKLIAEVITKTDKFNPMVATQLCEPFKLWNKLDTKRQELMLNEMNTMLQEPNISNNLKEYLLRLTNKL

[16] = target: T4, Voltage-gated inwardly rectifying potassium channel KCNH2 (Homo sapiens, UniProt Q12809); assay: concentration dependence of hERG rescue from dofetilide, dose response, manual patch clamp, HEK293 cells (AID 2638); assay type: ADME
T4 sequence (Q12809 whole entry): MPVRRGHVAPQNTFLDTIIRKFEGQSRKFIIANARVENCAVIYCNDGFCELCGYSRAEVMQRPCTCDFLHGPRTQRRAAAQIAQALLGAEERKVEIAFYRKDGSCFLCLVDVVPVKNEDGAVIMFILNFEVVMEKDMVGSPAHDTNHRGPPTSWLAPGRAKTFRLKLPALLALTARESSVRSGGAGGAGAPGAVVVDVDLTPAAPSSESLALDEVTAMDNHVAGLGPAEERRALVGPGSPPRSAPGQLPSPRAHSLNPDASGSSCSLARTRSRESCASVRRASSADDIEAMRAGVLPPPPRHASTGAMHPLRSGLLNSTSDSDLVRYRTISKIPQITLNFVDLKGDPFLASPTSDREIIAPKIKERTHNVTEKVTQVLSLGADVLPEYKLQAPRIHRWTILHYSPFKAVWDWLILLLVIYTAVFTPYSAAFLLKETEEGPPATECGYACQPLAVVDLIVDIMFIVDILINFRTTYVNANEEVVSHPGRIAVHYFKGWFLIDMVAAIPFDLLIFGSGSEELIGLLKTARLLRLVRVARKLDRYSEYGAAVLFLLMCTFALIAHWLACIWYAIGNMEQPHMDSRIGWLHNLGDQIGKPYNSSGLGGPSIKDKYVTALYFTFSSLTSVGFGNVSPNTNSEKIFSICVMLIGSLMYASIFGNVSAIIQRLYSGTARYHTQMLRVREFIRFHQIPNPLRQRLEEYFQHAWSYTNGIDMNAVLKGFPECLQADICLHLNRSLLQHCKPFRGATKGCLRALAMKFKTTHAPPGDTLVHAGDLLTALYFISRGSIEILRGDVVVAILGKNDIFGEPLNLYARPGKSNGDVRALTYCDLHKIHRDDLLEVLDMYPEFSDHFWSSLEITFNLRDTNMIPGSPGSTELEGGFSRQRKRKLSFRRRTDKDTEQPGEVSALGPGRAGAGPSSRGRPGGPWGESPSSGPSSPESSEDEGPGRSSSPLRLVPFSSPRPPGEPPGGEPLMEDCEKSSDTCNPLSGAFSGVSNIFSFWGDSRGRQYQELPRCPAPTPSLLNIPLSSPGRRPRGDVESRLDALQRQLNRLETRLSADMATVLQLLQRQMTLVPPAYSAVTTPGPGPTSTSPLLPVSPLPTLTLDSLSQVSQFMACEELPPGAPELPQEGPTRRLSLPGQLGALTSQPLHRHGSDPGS

[17] = target: T4, Voltage-gated inwardly rectifying potassium channel KCNH2; assay: hERG protection from proarrhythmic block, potency, dose response, cell-based, thallium flux (AID 2121); assay type: ADME

## CNC(=O)c1nnsc1[S+]([O-])c1ccc(Cl)cc1 (stereo unspecified)
[1]
  IC50: 0.707 µM (active)
[2]
  EC50: 5.05 µM (inconclusive)
[3]
  EC50: 2.07 µM (active)
[4]
  IC50: 2.73 µM (active)
[5]
  EC50: 0.977 µM (active)
[6]
  EC50: 1.9 µM (active)
[7]
  IC50: 108 µM (active)
CHO
  IC50: 2.23 µM (active)
[8]
  AC50: 41.2 µM (active)
Protein RecA
  EC50: 21 µM (active)
Beta Lactamase
  IC50: 19.6 µM (inactive)
[9]
  AC50: 2.02 µM (active)
[10]
  AC50: 6.49 µM (active)
[11]
  AC50: 11.5 µM (active)
[12]
  AC50: 9.72 µM (active)
[13]
  AC50: 2.58 µM (active)
[14]
  AC50: 2.49 µM (active)
[15]
  AC50: 12 µM (active)

## CCC1CCCCN1C(=S)NC(=O)c1cccs1 (stereo unspecified)
Aminopeptidase N
  IC50: 30 µM (active)
[16]
  EC50: 5.2 µM (active)
[17]
  EC50: 0.29 µM (active)
